Data set [1] concerns Jurkat. Nature of the data set: Induction of T cell activation in human Jurkat T cells overexpressing PD-1 co-cultured with Chinese hamster CHO cells overexpressing PD-L1 assessed as increase in luciferase activity incubated for 6 hrs by Bio-GloTM reagent based immune checkpoint blockade assay. The format is functional.
A short description of data set [2]: Toxicity in human Jurkat T cells overexpressing PD-1 co-cultured with Chinese hamster CHO cells overexpressing PD-L1 at 0.01 to 100 uM. It is filed as cell-based. Particulars: dose 0.01-100 µM.
Data set [3] deals with Jurkat. Briefly: Induction of T cell activation in human Jurkat T cells overexpressing PD-1 co-cultured with Chinese hamster CHO cells overexpressing PD-L1 assessed as increase in luciferase activity at 1 uM incubated for 6 hrs by Bio-GloTM reagent based immune checkpoint blockade assay. The format is functional.
Data set [4] concerns Jurkat. Nature of the data set: Induction of T cell activation in human Jurkat T cells overexpressing PD-1 co-cultured with Chinese hamster CHO cells overexpressing PD-L1 assessed as increase in luciferase activity at 6.4 uM incubated for 6 hrs by Bio-GloTM reagent based immune checkpoint blockade assay. The format is functional.
The target in data set [5] is Programmed cell death protein 1/Programmed cell death 1 ligand 1 (Homo sapiens, UniProt Q9NZQ7). Briefly: Inhibition of human PD-1/PDL1 interaction incubated for 1 hr by HTRF assay. The format is protein-complex assay.
Programmed cell death protein 1/Programmed cell death 1 ligand 1, sequence (Q15116 whole entry): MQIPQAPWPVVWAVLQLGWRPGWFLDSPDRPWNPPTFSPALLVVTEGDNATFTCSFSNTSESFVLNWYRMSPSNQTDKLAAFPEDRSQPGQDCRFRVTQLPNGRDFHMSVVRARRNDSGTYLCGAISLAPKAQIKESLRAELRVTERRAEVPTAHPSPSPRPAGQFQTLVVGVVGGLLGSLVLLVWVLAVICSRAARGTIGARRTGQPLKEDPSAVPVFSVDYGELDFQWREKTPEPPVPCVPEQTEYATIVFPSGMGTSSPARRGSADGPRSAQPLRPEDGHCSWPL
Programmed cell death protein 1/Programmed cell death 1 ligand 1, sequence (Q9NZQ7 whole entry): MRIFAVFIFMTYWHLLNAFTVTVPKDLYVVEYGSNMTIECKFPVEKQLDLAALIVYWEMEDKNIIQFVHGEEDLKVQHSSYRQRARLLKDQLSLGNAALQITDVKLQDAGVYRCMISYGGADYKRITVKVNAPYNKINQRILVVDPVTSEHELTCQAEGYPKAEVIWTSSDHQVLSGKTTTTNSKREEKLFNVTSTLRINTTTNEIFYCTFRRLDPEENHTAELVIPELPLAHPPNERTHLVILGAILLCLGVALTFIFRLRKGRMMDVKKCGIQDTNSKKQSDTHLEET

Calls of active or inactive are those of the source. The rule behind the calls is not given here.

On to `COc1cc(-c2cccc(-c3ccc4c(c3)OCCO4)c2Cl)ccc1CN1CCC(C(=O)NCCO)C1` (stereo not given), for which the Activity entry in data set [1] is “Dose-Dependent Effect”; in data set [2] it was “Toxic”.
Consider `COc1cc(-c2cccc(-c3ccc4c(c3)OCCO4)c2Cl)ccc1CN1CCC(C(=O)NO)C1` (stereo not given), for which the result in data set [3] was inactive.
For the compound `COc1cc(-c2cccc(-c3ccc4c(c3)OCCO4)c2Cl)ccc1CN1CCC(C(=O)NCCN)C1` (stereo not given), the outcome in data set [3] and in data set [4] was inactive.
Regarding `COc1cc(-c2cccc(-c3ccc4c(c3)OCCO4)c2Cl)ccc1CN1CCC(C(=O)NC(CO)CO)C1` (stereo not given), the Activity entry in data set [1] is “Dose-Dependent Effect”; in data set [2], “Toxic”. Besides, the outcome in data set [3] was inactive. Besides, the outcome in data set [4] was Active.
As usually defined, the IC50 is the concentration needed to halve the response being measured. High values mean weaker potency, low ones greater potency. Turning to `COc1cc(-c2cccc(-c3ccc4c(c3)OCCO4)c2Cl)ccc1CN1CCCC(C(=O)NC(CO)CO)C1` (stereo not given), in data set [5], 6 nM corresponded to half-maximal inhibition (IC50).
Regarding `COc1cc(-c2cccc(-c3ccc4c(c3)OCCO4)c2Cl)ccc1CN1CCC(C(=O)NN(C)C)C1` (stereo not given), the Activity result in data set [1] was “Dose-Dependent Effect”; in data set [2], “Toxic”. Besides, the result in data set [4] was Active.
With `COc1cc(-c2cccc(-c3ccc4c(c3)OCCO4)c2Cl)ccc1CN1CCC(C(=O)NC(CO)(CO)CO)C1` (stereo not given), the result in data set [3] and in data set [4] was inactive.
